# Laboratory results as given in patent US20070167526A1, “Topical mecamylamine formulations for ocular administration and uses thereof” (priority 2005, published 2007).
# Tests used:
# [1] = Ocular bioavailability following intravenous administration (Example 2); assay type: in vivo, New Zealand White rabbit; settings: rabbit; 15 mg/kg i.v.; FIG. 3
# Description: This study was designed to model the ocular bioavailability of mecamylamine when administered systemically. Rabbit eyes are the preferred model for in vivo modeling of ocular drugs, however, the rabbit is not the subject of choice for modeling oral bioavailability. However, systemic administration does emulate orally administered mecamylamine to a reasonable approximation since mecamylamine has rapid absorption and high oral bioavailability. Therefore, intravenous injection was used to model ocular bioavailability of mecamylamine administered systemically, in order to determine the deposition of mecamylamine to the plasma, vitreous and posterior tissues (retina/choroid) of the eye from the blood.
# The study comprised 2 groups (each N=6, 12 rabbits total) of male NZW (New Zealand White) rabbits weighing approximately 2.5-3 kg and obtained from Kralek Farms (Turlock, Calif.). Mecamylamine solution, prepared as described in Example 1, at a dose of 15 mg/kg was delivered via i.v. infusion as either a short infusion (1 hr) or slow infusion (6 hr) in rabbits sedated by ketamine/xylazine, with the slow infusion intended to model controlled systemic release of the mecamylamine.
# For both groups, samples of the vitreous(≧0.1 ml) and plasma were withdrawn at 6 time points: pre-dose, 30 min, 1, 2, 4, and 6 hr. At 6 hours, all animals were sacrificed and vitreous and retinal tissues were collected. The total amount of mecamylamine administered during each infusion was the same, based on the weight of the individual rabbit.
# The concentrations of mecamylamine present in the various samples were analyzed as described in Example 6, below.
# healthy adults = assay: Phase 1 ocular and systemic safety of mecamylamine ophthalmic solution (Example 11); assay type: in vivo; settings: human
# Description: A phase 1 study entitled: “A Phase 1, Double-Masked, Randomized, 1-Day and 14-Day Escalating Dose Study to Assess the Ocular and Systemic Safety of Mecamylamine Ophthalmic Solution” was initiated in the United States in healthy adults. The safety objectives of this study were to evaluate the ocular and systemic safety of 4 concentrations of mecamylamine ophthalmic solution following 1-day (administered twice) and 14-day (BID) administration. The dose levels of mecamylamine ophthalmic solution evaluated were 0.03%, 0.1%, 0.3%, and 1%. A summary of the composition of the mecamylamine ophthalmic solution and placebo formulation is shown below in Table 7.
# In the 1-day portion of the study, 10 subjects in each group were dosed in a single eye on two occasions with 6 hours between dosing. […] Subjects were evaluated for local (ocular) safety and tolerability based upon evaluation of ocular symptoms, ocular comfort, best-corrected visual acuity, biomicroscopy with fluorescein staining, measurement of intraocular pressure (IOP) by Goldman applanation tonometry, ophthalmoscopy, pupil size, and Schirmer's Test. They were also evaluated for systemic safety based upon assessment of physical examination, 12-lead ECG, vital signs, adverse events, hematology, clinical chemistry, and, urinalysis.
# [2] = Ocular bioavailability following topical ocular administration of 2% isotonic or in situ gel-forming solution (Examples 5, 6); assay type: in vivo, New Zealand White rabbit; settings: rabbit
# Description: The objective of this study was to determine the pharmacokinetics of mecamylamine, administered either as an isotonic solution (prepared as in Example 3) or in situ gel-forming solution (as prepared in Example 4), in the plasma, vitreous humor and retina of the eyes when applied topically to the surface of the eye.
# The study comprised 2 groups (N=4/group; 8 rabbits total) of male NZW rabbits each weighing approximately 2-3 kg and obtained from Kralek Farms (Turlock, Calif.). […] For both groups, samples of the vitreous(≧0.1 ml) were withdrawn at 6 time points (one withdrawal per eye): pre-dose, 30 min, 1 (sacrifice), 3, 6, 12, and 24 (sacrifice) hr. At all time points, only duplicate vitreous fluid samples (each coming from different eye from different animals) were collected in order to minimize pain and damage to rabbit eyes.
# Blood for plasma(≧0.5 ml) and intra-vitreal fluid (˜0.1 ml) were collected at 0, 30, 60 min from each animal with sacrifice for 2 animals/group at 60 minutes. […]
# A 0.5 mg/mL stock of mecamylamine hydrochloride USP in DMSO was prepared and used as the working standard to produce the calibration standards for quantification of the mecamylamine content in various samples collected as described above. […]
# Each tissue sample collected was weighed. […] The samples were analyzed using LC/MS/MS and quantified using the calibration standards prepared in plasma as described above.
# [3] = tested on: VEGF-induced endothelial tube formation; assay: VEGF-induced endothelial tube formation in vitro; assay type: cell-based
smiles,measurement,setting,value
"CNC1(C)C2CCC(C2)C1(C)C (stereo not drawn) [mecamylamine, N-2,3,3-tetramethylbicyclo(2.2.1)heptan-2-amine]","amount of mecamylamine reaching the retina/choroid, long infusion versus short infusion",[1],more than 2 fold
same,best-corrected visual acuity,healthy adults,no change in best corrected visual acuity
same,pupil size,healthy adults,none of the subjects tested showing an increase in pupil diameter
same,"retinal/choroidal tissue:plasma ratio, topical compared to systemic administration",[2],at least 40 fold
same,levels of mecamylamine in erythrocytes (red blood cells) versus plasma,[2]; topical ocular,comparable
same,VEGF-induced endothelial tube formation,[3],inhibited
